Among the data in patent US20250041307A1, “Uses of Bicyclic Compounds for the Treatment of Diseases” (Athira Pharma, Inc., priority 2021, published 2025) are Potency, solubility and Papp values, retold here.

In one data set the test system is HGF/MET system. The experiment in a line: Phospho-MET ELISA. In kind it is cell-based. More on the design: key: − indicates that the compound failed to significantly augment MET phosphorylation; + indicates maximum potency at or above 100 nM; ++ indicates maximum potency at or above 10 nM; +++ indicates maximum potency at or above 1 nM; ++++ indicates maximum potency at or above 0.1 nM. The note with it: HEK293 cells; with 1 ng/mL recombinant HGF; 15 minutes; augmentation of MET phosphorylation (pMET ELISA). In outline:
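Serum-starved (≥8 h) HEK293 cells treated with compound plus 1 ng/mL recombinant HGF for 15 min at 37° C in triplicate, then lysed in RIPA. Equal protein (50–100 μg, BCA-normalized) run in pMET sandwich ELISA, A450 read. Responses scaled 1–10 between 1 ng/mL and 10 ng/mL HGF means, using peak efficacy.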
(In general: ELISA stands for enzyme-linked immunosorbent assay.)

Another data set has as its system MDCK cells. The experiment in a line: Cell scattering behavior assay. The note with it: with 5 ng/mL HGF, 24 hours, normalized particle count compared to HGF treatment alone. The arrangement: key: − indicates that the compound failed to significantly promote cell scattering behavior; + indicates maximum potency at or above 100 nM; ++ indicates maximum potency at or above 10 nM; +++ indicates maximum potency at or above 1 nM; ++++ indicates maximum potency at or above 0.1 nM. In kind it is cell-based. In short, it runs like this: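 MDCK cells starved 2 h in serum-free DMEM, then treated 24 h at 37 °C with compounds plus 5 ng/mL HGF. Cells were ethanol-fixed, WGA488-stained and imaged. Scattering was scored as particle count normalized to stained area, with activity taken as a statistical increase in normalized particle count over HGF alone.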

Data set [1] is described as follows: Turbidimetric solubility assay. The note with it: PBS (diluted from 10 mM DMSO stock), aqueous buffer, kinetic from dmso stock, 37° C. for 2 hours, dilution series 3 to 300 μM. In kind it is physicochemical. On the procedure: Aqueous solubility is a critical drug property that helps to predict bioavailability. Generally, compounds with aqueous solubility <100 μg/ml are poor drugs.
To assess a compound's solubility by turbidity, test compounds were first dissolved in organic solvent (DMSO) at a concentration of 10 mM. This compound solution was then diluted in aqueous solvent (PBS) in a dilution series from 3 to 300 μM in a 96-well assay plate. Solutions were incubated at 37° C. for 2 hours.
In wells with test compounds over their solubility limit, the compound will precipitate, effectively blocking the passage of light and thus increasing the absorbance signal of UV light at a wavelength of 620 nm. Compounds were considered insoluble at a tested concentration if turbidity raises the absorbance more than 10% above control reads.

The nature of data set [2]: Parallel artificial membrane permeability assay (PAMPA). In kind it is in vitro ADME. Particulars: PBS, room temperature for 5 hours, 200 uM in donor well. How it is done:
Bioavailable drugs must permeate the cellular membranes of the lining of the digestive tract. To estimate the penetrability of exemplary compounds, the in vitro parallel artificial membrane permeability assay (PAMPA) was utilized.
Test compounds must have a standard curve in the final read plate to determine partitioned concentration of each drug. A 6-point standard curve was prepared for each compound from 0 to 200 μM in phosphate-buffered saline (PBS).
Test compound solution (300 μL in PBS) was added to the donor (bottom) well of the PAMPA plate in 5 replicates and PBS vehicle (200 μL) was added to the acceptor (top) wells of appropriate wells to match the loading of the donor plate. The bottom and top of the PAMPA plates were then sandwiched together. The PAMPA plates were then incubated at room temperature for 5 hours. After incubation, 150 μL of donor solution was added to a UV compatible plate containing the corresponding standard curve. 150 μL of acceptor well solution was added adjacent to the corresponding standard curve and donor well samples for that compound. The plate was then read using a UV plate reader.
Permeability and membrane retention were then calculated based on the following formulas:
where: • A=filter area (0.3 cm^2); • VD=donor well volume (0.3 mL); • VA=acceptor well volume (0.2 mL); • t=incubation time (seconds); • CA(t)=compound concentration in acceptor well at time t; • CD(t)=compound concentration in donor well at time t; and
where: • CD(t), VD, CA(t), and VA are as defined for equation 1, and • C0=initial concentration in donor well (200 uM).

Each structure is given as a SMILES string.

One may read the solubility as how much of the substance goes into solution per volume. In general, Papp refers to the rate of passage across a membrane or cell layer, normalised by area and donor concentration. As to `CCC(C)CN1CC2N(Cc3ccc(O)cc3)CCC(=O)N2[C@@H](C)C1=O` (some centres unmarked) [Compound 3a], the Potency entry with HGF/MET system and with MDCK cells was “−” in each case. In data set [1], this compound returned a solubility at 2 h of more than 300 µM. The compound also registered a Papp at 5 h, 200 uM in data set [2] of less than 2 ×10⁻⁶ cm/s.
As for `CC1C(=O)N(CCC(F)(F)F)CC2N(Cc3ccc(OC(F)F)cc3)CCC(=O)N12` (centres unmarked) [Compound 52], the Potency result in the data set with HGF/MET system is on record as “−”. In data set [1], this compound registered a solubility at 2 h of more than 100 µM.
Regarding `CC1C(=O)N(CCCC(F)(F)F)CC2N(Cc3ccc(OC(F)F)cc3)CCC(=O)N12` (centres unmarked) [Compound 37], the Potency entry with HGF/MET system was “−”. The compound further displayed a solubility at 2 h in data set [1] of more than 300 µM.
